{"source": "patent US11419913B2", "about": "“Pharmaceutical compositions for inhibiting inflammatory cytokines” (S.I.S. SHULOV INNOVATIVE SCIENCE LTD., priority 2018, dated 2022)", "key": {"[1]": {"test_system": "oxazolone-induced atopic dermatitis (AD) mouse models", "assay": "Oxazolone-induced atopic dermatitis mouse model, clinical lesions", "type": "in vivo", "description": "The effect of topical administration of ZEP3 (SEQ ID NO: 1), and its sodium salt form (ZEP3Na), and ZEP4 (SEQ ID NO: 2) was evaluated in oxazolone-induced atopic dermatitis (AD) mouse models. This model is widely used and well described in literature (Avci et al. 2013 Expert Opin Drug Discov. 8, 331-355; Petersen T. K. 2006, Basic Clin. Pharmacol. Toxicol. 99, 104-115) as an accepted animal model for evaluating drugs for AD therapy in humans."}, "[2]": {"assay": "Oxazolone-induced atopic dermatitis mouse model, tolerability and bodyweights", "procedure": "Method: Animals were sensitized by topical administration of oxazolone 2% in ethanol on the back at Day 0 after shaving and depilation of the animals (sensitization phase). Then a challenge was performed one week later by topical administration of oxazolone 1% in ethanol on the back and on right ear every 2 days at 10 occasions namely for total 3 weeks. The tested compounds were applied during the challenge phase every 2 days via the topical route as ready to use cream formulations. The surface of application was the same as for challenge (back+ear). 100 μL were deposited on the back and the back was smoothly massaged. Then, remaining formulation on finger glove was deposited on the internal face of the ear. Every other day, back skin and ears thickness were measured using caliper; and the following clinical scores were recorded from back skin: erythema and scaling. Animals were also weighed every other day (approximate bodyweights of a mouse at startup is about 20 g).\nThe formulations used for topical administration of the tested compound were: ZEP3 1% cream having pH 7.1 and comprising: Propylene glycol, Polysorbate 80, Edetate Disodium, Silicon dioxide (syloid), Methylparaben, White petrolatum, Isopropyl Myristate, Cetyl Alcohol and Glyceryl Monostearate. ZEP3Na 1% cream having pH 8.0 and comprising: Propylene glycol, Polysorbate 80, Edetate Disodium, Silicon dioxide (syloid), Methylparaben, White petrolatum, Isopropyl Myristate, Cetyl Alcohol and Glyceryl Monostearate. ZEP4 1% cream having pH 4.5 and comprising: Propylene glycol, Glycerin, Polysorbate 80, EDTA Disodium, Xanthan Gum, Silicon dioxide (syloid), Methylparaben, White petrolatum, Isopropyl Myristate, Cetyl Alcohol, Stearyl Alcohol, and Glyceryl Monostearate (kolliwax)."}, "physchem": {"assay": "physchem", "details": "water"}, "CMC type arthritis": {"test_system": "CMC type arthritis", "assay": "Treatment of CMC arthritis of the big toe in a subject", "type": "in vivo, human", "details": "0.5% cream applied on the swollen area 5 times a day", "description": "Their toe was swollen, red, and so painful that it prevented them from walking. ZEP3 sodium salt at 0.5% cream was applied on the swollen area 5 times a day."}, "TNF alpha": {"test_system": "TNF alpha", "assay": "TNF alpha secretion in LPS treated human keratinocytes (ELISA)", "type": "cell-based", "details": "for TNFα: ZEP3Na without DMSO; for Fold Change: refers to TNF-α concentration in sample #2; for % Inhibition: vs corresponding control group without peptide", "description": "Methods: SCCE020 cells (EpiGRO™ Human Epidermal Keratinocytes) were grown in complete growth medium (EpiGRO™ Human Keratinocytes Complete Medium; Millipore Cat. #SCMK001) for 4 passages. At passage 5, cells were seeded (3*10^5 cells/well) in triplicates in a volume of 1 ml complete growth medium per well. Additional 3 control wells contained only medium without cells. Upon adherence, cell medium was replaced by basal medium containing L-Glutamine without supplements (starvation medium) and cells were starved overnight. The next day, 24 hours after seeding, the cells were treated with ZEP3 or ZEP3Na or appropriate diluent (PBS or DMSO). After 4 hours of incubation, LPS (from E. Coli 055: B5; Sigma Cat. #L6529-1MG) was added to the wells in final concentration of 20 or 30 μg/ml.\nCells were incubated for 24 hours in tissue culture incubator. After collecting cell supernatants from all wells, cells from treatment groups: 1, 2, 3, 8, 9, 10, 13, 14 (without DMSO groups) were pelleted and stored at −80° C. for further analyses. The cells were collected from as following: upon supernatants collection, the wells were rinsed with trypsin, then incubated with trypsin until they detached from the plate surface, centrifuged, washed with PBS and stored as a cell pellet. TNF-α concentration in the supernatants was measured by ELISA (Quantikine HS ELISA; R&D Systems Cat. #HSTA00D), in 5 replicates.\nTNF alpha concentration in the samples was calculated according to the standard curve trend line equation: =0.063x+0.1718. Percent inhibition of TNF alpha production was calculated in each treatment group in comparison to the corresponding control group (same conditions, without peptide)."}, "[3]": {"details": "peptide 0.02 mg/ml, LPS 20 μg/ml"}, "[4]": {"details": "peptide 0.2 mg/ml, LPS 20 μg/ml"}, "[5]": {"details": "peptide 0.2 mg/ml, LPS 30 μg/ml"}, "[6]": {"details": "peptide 0.4 mg/ml, LPS 20 μg/ml"}}, "note": "Structures can show the parent of a compound that is named as a salt. Where a SMILES comes first, the peptide text is derived from it. [ ]: non-standard residue; d: D form. The star is where a group is joined. pGlu = O=C1CC[C@@H](C(=O)O)N1; Octanoyl = CCCCCCCC(=O)*", "data": [{"smiles": "C[C@H]1C[C@H]2[C@@H]3CCC4=CC(=O)C=C[C@]4(C)[C@@]3(F)[C@@H](O)C[C@]2(C)[C@@]1(O)C(=O)CO", "note": "[Betamethasone, reference compound]", "values": [{"measurement": "Back skin thickness decrease", "setting": "[1]; day 28, topical, 2.5 mg/kg", "result": 40, "unit": "%"}, {"measurement": "bodyweight loss", "setting": "[2]; topical, 2.5 mg/kg", "result": "8-10%"}]}, {"smiles": "C[C@@H](O)[C@H](NC(=O)[C@H](Cc1c[nH]c2ccccc12)NC(=O)[C@H](CC(N)=O)NC(=O)[C@@H]1CCC(=O)N1)C(=O)O", "note": "[ZEP4 sodium salt, pGlu-Asn-Trp-Thr-OH.nNa] (HELM PEPTIDE1{[Glp].N.W.T}$$$$V2.0)", "values": [{"measurement": "solubility", "setting": "physchem", "result": 50, "unit": "mg/mL"}]}, {"smiles": "CCCCCCCC(=O)NCCCC[C@H](NC(=O)[C@H](Cc1c[nH]c2ccccc12)NC(=O)[C@H](CC(N)=O)NC(=O)[C@@H]1CCC(=O)N1)C(=O)O", "note": "[ZEP3Na, pGlu-Asn-Trp-Lys(Octanoyl)-OH.nNa] ([pGlu]NWK(Octanoyl)-OH)", "values": [{"measurement": "Scaling: period of reduction", "setting": "[1]; 1% cream topical, 50 mg/kg, scaling score of back skin", "result": "from days 14 to 24"}, {"measurement": "Right ear thickness, significant difference in comparison to control", "setting": "[1]; days 18, 20 and 22", "result": "−18.4 to −22.7", "unit": "%"}, {"measurement": "Erythema scoring: days with a significant difference", "setting": "[1]; vs control group", "result": "day 24"}, {"measurement": "total score: days with significant difference", "setting": "[1]; vs control group", "result": "days 14, 18, 20 and 22"}, {"measurement": "time to relief reported by the subject", "setting": "CMC type arthritis", "result": "within one day"}, {"measurement": "time to resolution of the condition", "setting": "CMC type arthritis", "result": "3 to 4", "unit": "days"}, {"measurement": "TNF alpha levels / production in LPS treated human keratinocytes (in words)", "setting": "TNF alpha; compared with cells stimulated with LPS alone", "result": "dose dependent inhibition"}, {"measurement": "TNFα", "setting": "TNF alpha; peptide 0.02 mg/ml, LPS 20 μg/ml, ZEP3 in 0.025% DMSO", "result": 9.2, "unit": "pg/mL"}, {"measurement": "Fold Change", "setting": "TNF alpha; [3]", "result": 3.3}, {"measurement": "% Inhibition", "setting": "TNF alpha; [3]", "result": 26, "unit": "%"}, {"measurement": "TNFα", "setting": "TNF alpha; peptide 0.2 mg/ml, LPS 20 μg/ml, ZEP3 in 0.05% DMSO", "result": 6.7, "unit": "pg/mL"}, {"measurement": "Fold Change", "setting": "TNF alpha; [4]", "result": 2.4}, {"measurement": "% Inhibition", "setting": "TNF alpha; [4]", "result": 46, "unit": "%"}, {"measurement": "TNFα", "setting": "TNF alpha; peptide 0.2 mg/ml, LPS 30 μg/ml, ZEP3 in 0.10% DMSO", "result": 13.1, "unit": "pg/mL"}, {"measurement": "Fold Change", "setting": "TNF alpha; [5]", "result": 4.7}, {"measurement": "% Inhibition", "setting": "TNF alpha; [5]", "result": 38, "unit": "%"}, {"measurement": "TNFα", "setting": "TNF alpha; peptide 0.4 mg/ml, LPS 20 μg/ml, ZEP3 in 0.10% DMSO", "result": 5.9, "unit": "pg/mL"}, {"measurement": "Fold Change", "setting": "TNF alpha; [6]", "result": 2.1}, {"measurement": "% Inhibition", "setting": "TNF alpha; [6]", "result": 52, "unit": "%"}, {"measurement": "solubility", "setting": "physchem", "result": 50, "unit": "mg/mL"}, {"measurement": "tolerability", "setting": "[2]; 50 mg/kg topical to atopic dermatitis induced mice", "result": "well tolerated"}, {"measurement": "Bodyweights in comparison to the excipient", "setting": "[2]; day 8 to day 28", "result": "behaved normally"}]}]}
